What was measured:
FADD−/− Jurkat cells = test: Necroptosis inhibition assay, TNF-α-induced necroptosis (CellTiter-Glo 2.0); type: cell-based, human; details: TNF-α 15 ng/mL; for Necroptosis inhibition assay (Rescue %) 1 μM: compound 1 μM; for Necroptosis inhibition assay (Rescue %) 10 μM: compound 10 μM
Procedure, shortened: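 Compound is added to cells at final concentrations of 0.1, 1 and 10 μM and left 30 minutes at room temperature. Necroptosis is induced with 15 ng/mL TNF-α, culture continues 20 to 24 hours at 37° C, and ATP-based luminescence reports viability.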

MLKL [1] = biological target: T1, MLKL (Homo sapiens, UniProt Q8NB16); test: MLKL degradation assay in HepG2 cell line (western blot); type: cell-based; set-up: endogenous in cells; host or cells: HepG2 or HaCaT; details: cell line not given; for Degradation assay (Degradation %) 1 μM: compound 1 μM; for Degradation assay (Degradation %) 10 μM: compound 10 μM
T1 sequence (Q8NB16 1-471): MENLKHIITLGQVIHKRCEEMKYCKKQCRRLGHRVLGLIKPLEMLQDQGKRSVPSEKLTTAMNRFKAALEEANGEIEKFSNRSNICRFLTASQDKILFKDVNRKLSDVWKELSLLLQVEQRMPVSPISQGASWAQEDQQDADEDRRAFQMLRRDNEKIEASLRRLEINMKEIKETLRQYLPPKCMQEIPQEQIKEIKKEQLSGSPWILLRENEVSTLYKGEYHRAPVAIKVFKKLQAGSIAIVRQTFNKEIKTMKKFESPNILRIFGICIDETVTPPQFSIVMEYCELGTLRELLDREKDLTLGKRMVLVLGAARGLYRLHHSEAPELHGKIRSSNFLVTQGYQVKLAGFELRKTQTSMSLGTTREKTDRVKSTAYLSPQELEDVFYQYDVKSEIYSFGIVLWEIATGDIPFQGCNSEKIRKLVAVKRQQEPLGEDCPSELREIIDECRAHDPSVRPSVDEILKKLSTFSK
Procedure, shortened: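 Chemiluminescent western blot signal reports remaining MLKL protein in HepG2 cells after 20-24 h treatment with compound at a final 1 or 10 μM. Equal protein (10-15 μg, BCA) is loaded per lane.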

MLKL [2] = biological target: T1, MLKL; test: Measurement of binding affinity with MLKL receptor (competitive binding assay, Kd); set-up: made in house; host or cells: HEK 293 cell line (T7 phage in E. coli BL21-derived host is also described)
Procedure, shortened: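 HEK 293-expressed, DNA-tagged MLKL; ligand beads blocked with biotin and SeaBlock/1% BSA/0.05% Tween 20/1 mM DTT buffer. Cpd from 111× DMSO stock, 0.9% DMSO final. Eluted kinase by qPCR → Kd.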

| Degradation assay (Degradation %) 1 μM (MLKL [1]) [%] | Degradation assay (Degradation %) 10 μM (MLKL [1]) [%] | Kd (MLKL [2]) [nM] | Compound | Necroptosis inhibition assay (Rescue %) 1 μM (FADD−/− Jurkat cells; FADD−/− Jurkat cells) [%] | Necroptosis inhibition assay (Rescue %) 10 μM (FADD−/− Jurkat cells; FADD−/− Jurkat cells) [%] | Necroptosis inhibition assay (Rescue %) 1 μM (FADD−/− Jurkat cells) [%] | Necroptosis inhibition assay (Rescue %) 10 μM (FADD−/− Jurkat cells) [%] |
| --- | --- | --- | --- | --- | --- | --- | --- |
| 67.25 | 81.42 | 1.2 | Nc1ncc(-c2cnn(C3CCN(CCCN4CCN(C(=O)C5CCN(C6=CC(=O)N(C7CCC(=O)NC7=O)C6=O)CC5)CC4)CC3)c2)nc1C(=O)O[C@@H](C(=O)Nc1ccc(F)cc1)c1ccccc1 (stereo partly drawn) [TDH-526, (R)-2-((4-fluorophenyl)amino)-2-oxo-1-phenylethyl 3-amino-6-(1-(1-(3-(4-(1-(1-(2,6-dioxopiperidin-3-yl)-2,5-dioxo-2,5-dihydro-1H-pyrrol-3-yl)piperidine-4-carbonyl)piperazin-1-yl)propyl)piperidin-4-yl)-1H-pyrazol-4-yl)pyrazine-2-carboxylate] | 57.37 | 22.77 |  |  |
| 38.91 | 60.57 | 24 | Nc1ncc(-c2cnn(C3CCN(CC4CCN(C(=O)C5CCN(c6ccc7c(c6)C(=O)N(C6CCC(=O)NC6=O)C7=O)CC5)CC4)CC3)c2)nc1C(=O)O[C@@H](C(=O)Nc1ccc(F)cc1)c1ccccc1 (stereo partly drawn) [TDH-147, (R)-2-((4-fluorophenyl)amino)-2-oxo-1-phenylethyl 3-amino-6-(1-(1-((1-(1-(2-(2,6-dioxopiperidin-3-yl)-1,3-dioxoisoindolin-5-yl)piperidine-4-carbonyl)piperidin-4-yl)methyl)piperidin-4-yl)-1H-pyrazol-4-yl)pyrazine-2-carboxylate] |  |  | 84.3 | 45.37 |
| 8.68 | 62.79 | 0.83 | Nc1ncc(-c2cnn(C3CCN(CCCCCCNC(=O)C4CN(c5ccc6c(c5)C(=O)N(C5CCC(=O)NC5=O)C6=O)C4)CC3)c2)nc1C(=O)O[C@@H](C(=O)Nc1ccc(F)cc1)c1ccccc1 (stereo partly drawn) [TDH-114, (R)-2-((4-fluorophenyl)amino)-2-oxo-1-phenylethyl 3-amino-6-(1-(1-(6-(1-(2-(2,6-dioxopiperidin-3-yl)-1,3-dioxoisoindolin-5-yl)azetidine-3-carboxamido)hexyl)piperidin-4-yl)-1H-pyrazol-4-yl)pyrazine-2-carboxylate] |  |  | 13.68 | 38.3 |
| 71.36 | 51.92 | 13 | Nc1ncc(-c2cnn(C3CCN(C(=O)CC4CCN(C(=O)CNc5cccc6c5C(=O)N(C5CCC(=O)NC5=O)C6=O)CC4)CC3)c2)nc1C(=O)O[C@@H](C(=O)Nc1ccc(F)cc1)c1ccccc1 (stereo partly drawn) [TDH-339, (R)-2-((4-fluorophenyl)amino)-2-oxo-1-phenylethyl 3-amino-6-(1-(1-(2-(1-((2-(2,6-dioxopiperidin-3-yl)-1,3-dioxoisoindolin-4-yl)glycyl)piperidin-4-yl)acetyl)piperidin-4-yl)-1H-pyrazol-4-yl)pyrazine-2-carboxylate] |  |  | 12.23 | 12.31 |
| 68.16 | 66.72 | 1.4 | Nc1ncc(-c2cnn(C3CCN(C(=O)c4cn(C5CCN(C(=O)COc6cccc7c6C(=O)N(C6CCC(=O)NC6=O)C7=O)CC5)cn4)CC3)c2)nc1C(=O)O[C@@H](C(=O)Nc1ccc(F)cc1)c1ccccc1 (stereo partly drawn) [TDH-354, (R)-2-((4-fluorophenyl)amino)-2-oxo-1-phenylethyl 3-amino-6-(1-(1-(1-(1-(2-((2-(2,6-dioxopiperidin-3-yl)-1,3-dioxoisoindolin-4-yl)oxy)acetyl)piperidin-4-yl)-1H-imidazole-4-carbonyl)piperidin-4-yl)-1H-pyrazol-4-yl)pyrazine-2-carboxylate] |  |  | 31.96 | 35.2 |
| 81.44 | 56.99 | 0.37 | Cn1c(=O)n(C2CCC(=O)NC2=O)c2ccc(N3CCC(C(=O)N4CCN(CCCN5CCC(n6cc(-c7cnc(N)c(C(=O)O[C@@H](C(=O)Nc8ccc(F)cc8)c8ccccc8)n7)cn6)CC5)CC4)CC3)cc21 (stereo partly drawn) [TDH-540, (R)-2-((4-fluorophenyl)amino)-2-oxo-1-phenylethyl 3-amino-6-(1-(1-(3-(4-(1-(1-(2,6-dioxopiperidin-3-yl)-3-methyl-2-oxo-2,3-dihydro-1H-benzo[d]imidazol-5-yl)piperidine-4-carbonyl)piperazin-1-yl)propyl)piperidin-4-yl)-1H-pyrazol-4-yl)pyrazine-2-carboxylate] | 20.79 | 17.37 |  |  |

Second part, the molecule before the results:

| Compound | Degradation assay (Degradation %) 1 μM (MLKL [1]) [%] | Degradation assay (Degradation %) 10 μM (MLKL [1]) [%] | Kd (MLKL [2]) [nM] | Necroptosis inhibition assay (Rescue %) 1 μM (FADD−/− Jurkat cells; FADD−/− Jurkat cells) [%] | Necroptosis inhibition assay (Rescue %) 10 μM (FADD−/− Jurkat cells; FADD−/− Jurkat cells) [%] | Necroptosis inhibition assay (Rescue %) 1 μM (FADD−/− Jurkat cells) [%] | Necroptosis inhibition assay (Rescue %) 10 μM (FADD−/− Jurkat cells) [%] |
| --- | --- | --- | --- | --- | --- | --- | --- |
| Nc1ncc(-c2cnn(C3CCN(CCC4CCN(C(=O)COc5cccc6c5C(=O)N(C5CCC(=O)NC5=O)C6=O)CC4)CC3)c2)cc1C(=O)OC(C(=O)Nc1ccc(F)cc1)c1ccccc1 (stereo not shown) [TDH-301, 2-((4-fluorophenyl)amino)-2-oxo-1-phenylethyl 2-amino-5-(1-(1-(2-(1-(2-((2-(2,6-dioxopiperidin-3-yl)-1,3-dioxoisoindolin-4-yl)oxy)acetyl)piperidin-4-yl)ethyl)piperidin-4-yl)-1H-pyrazol-4-yl)nicotinate] | 76.3 | 89.97 | 2.9 |  |  | 61.06 | 26.7 |
| Nc1ncc(-c2cnn(C3CCN(CCC4CCN(C(=O)COc5ccc6c(c5)C(=O)N(C5CCC(=O)NC5=O)C6=O)CC4)CC3)c2)nc1C(=O)O[C@@H](C(=O)Nc1ccc(F)cc1)c1ccccc1 (stereo partly drawn) [TDH-201, (R)-2-((4-fluorophenyl)amino)-2-oxo-1-phenylethyl 3-amino-6-(1-(1-(2-(1-(2-((2-(2,6-dioxopiperidin-3-yl)-1,3-dioxoisoindolin-5-yl)oxy)acetyl)piperidin-4-yl)ethyl)piperidin-4-yl)-1H-pyrazol-4-yl)pyrazine-2-carboxylate] | 85.96 | 82.98 | 1.3 |  |  | 91.53 | 62.79 |
| Nc1ncc(-c2cnn([C@H]3CCN(CCOCCOCCNC(=O)CNc4cccc5c4C(=O)N(C4CCC(=O)NC4=O)C5=O)C3)c2)nc1C(=O)OC(C(=O)Nc1ccc(F)cc1)c1ccccc1 (stereo partly drawn) [TDH-263, 2-((4-fluorophenyl)amino)-2-oxo-1-phenylethyl 3-amino-6-(1-((3S)-1-(2-(2-(2-(2-((2-(2,6-dioxopiperidin-3-yl)-1,3-dioxoisoindolin-4-yl)amino)acetamido)ethoxy)ethoxy)ethyl)pyrrolidin-3-yl)-1H-pyrazol-4-yl)pyrazine-2-carboxylate] | 76.27 | 71.82 | 7.4 |  |  | 16.13 | 57.97 |
| Nc1ncc(-c2cnn(C3CCN(CCCN4CCN(C(=O)COc5cccc6c5C(=O)N(C5CCC(=O)NC5=O)C6=O)CC4)CC3)c2)nc1C(=O)OC(C(=O)Nc1ccc(F)cc1)c1ccccc1 (stereo not shown) [TDH-243, 2-((4-fluorophenyl)amino)-2-oxo-1-phenylethyl 3-amino-6-(1-(1-(3-(4-(2-((2-(2,6-dioxopiperidin-3-yl)-1,3-dioxoisoindolin-4-yl)oxy)acetyl)piperazin-1-yl)propyl)piperidin-4-yl)-1H-pyrazol-4-yl)pyrazine-2-carboxylate] | 57.14 | 54.82 | 0.94 |  |  | 61.25 | 53.31 |
| Nc1ncc(-c2cnn(C3CCN(CC4CCN(CC(=O)N5CCN(c6cccc7c6C(=O)N(C6CCC(=O)NC6=O)C7=O)CC5)CC4)CC3)c2)nc1C(=O)OC(C(=O)Nc1ccc(F)cc1)c1ccccc1 (stereo not shown) [TDH-237, 2-((4-fluorophenyl)amino)-2-oxo-1-phenylethyl 3-amino-6-(1-(1-((1-(2-(4-(2-(2,6-dioxopiperidin-3-yl)-1,3-dioxoisoindolin-4-yl)piperazin-1-yl)-2-oxoethyl)piperidin-4-yl)methyl)piperidin-4-yl)-1H-pyrazol-4-yl)pyrazine-2-carboxylate] | 56.98 | 65.18 | 1.8 |  |  | 67.77 | 34.51 |

— US20240252488A1 (KOREA RESEARCH INSTITUTE OF CHEMICAL TECHNOLOGY, priority 2020, published 2024)
